# Experimental data taken from ChEMBL document CHEMBL5360625, “Design, Synthesis, and Antitumor Activity Evaluation of 2-Arylmethoxy-4-(2,2'-dihalogen-substituted biphenyl-3-ylmethoxy) Benzylamine Derivatives as Potent PD-1/PD-L1 Inhibitors” (J Med Chem, 2023).
# The source made the active and inactive calls. The rule behind the calls is not given here.
# Tests used:
# [1] = Cmax in Sprague-Dawley rat at 40 mg/kg, IG measured upto 48 hrs by LC-MS/MS analysis; format: ADME, organism-based; design: dose 40 mg/kg, time < 48 hrs, route ig; conditions: in vivo, po
# [2] = Hepatotoxicity in PD-1/PD-L1 humanized C57/BL6 mouse implanted with mouse MC38 cells assessed as effect on ALT level in serum at 50 mg/kg, IG qd administered on day 5 measured after 2 weeks; format: toxicity, organism-based, MC-38; conditions: in vivo, po, 336 h
# [3] = Half life in Sprague-Dawley rat at 8 mg/kg, iv measured upto 48 hrs by LC-MS/MS analysis; format: ADME, organism-based; conditions: Sprague-Dawley, in vivo
# [4] = Apparent volume of distribution in Sprague-Dawley rat at 40 mg/kg, IG measured upto 48 hrs by LC-MS/MS analysis; format: ADME, organism-based; conditions: in vivo, po
# [5] = Toxicity in PD-1/PD-L1 humanized C57/BL6 mouse implanted with mouse MC38 cells assessed as change in body weight at 50 mg/kg, IG qd administered on day 5 measured after 2 weeks; format: organism-based, MC-38; conditions: in vivo, po, 336 h
# [6] = Cmax in Sprague-Dawley rat at 8 mg/kg, iv measured upto 48 hrs by LC-MS/MS analysis; format: ADME, organism-based; design: time < 48 hrs, dose 8 mg/kg, route iv; conditions: in vivo
# MC-38 [7] = experiment: Antitumor activity against mouse MC38 cells implanted in PD-1/PD-L1 humanized C57/BL6 mouse assessed as increase in CD3 positive CD8 positive T cells proportion in tumor at 50 mg/kg, IG qd administered on day 5 measured after 2 weeks by flow cytometry analysis (reference value: 51.8%); format: functional
# [8] = AUC (0 to t) in Sprague-Dawley rat at 8 mg/kg, iv measured upto 48 hrs by LC-MS/MS analysis; format: ADME, organism-based; design: dose 8 mg/kg, time < 48 hrs, route iv; conditions: in vivo
# [9] = Apparent volume of distribution in Sprague-Dawley rat at 10 mg/kg, ip measured upto 48 hrs by LC-MS/MS analysis; format: ADME, organism-based; conditions: in vivo
# [10] = Nephrotoxicity in PD-1/PD-L1 humanized C57/BL6 mouse implanted with mouse MC38 cells assessed as effect on urea level in serum at 50 mg/kg, IG qd administered on day 5 measured after 2 weeks; format: toxicity, organism-based, MC-38; conditions: in vivo, po, 336 h
# MC-38 [11] = experiment: Antitumor activity against mouse MC38 cells implanted in PD-1/PD-L1 humanized C57/BL6 mouse assessed as increase in granzyme B level at 50 mg/kg, IG qd administered on day 5 measured after 2 weeks by microscopic analysis; format: functional, organism-based
# [12] = Clearance in Sprague-Dawley rat at 40 mg/kg, IG measured upto 48 hrs by LC-MS/MS analysis; format: ADME, organism-based; conditions: Sprague-Dawley, in vivo, po
# [13] = Cmax in Sprague-Dawley rat at 10 mg/kg, ip measured upto 48 hrs by LC-MS/MS analysis; format: ADME, organism-based; design: time < 48 hrs, dose 10 mg/kg, route ip; conditions: in vivo
# MC-38 [14] = experiment: Immunomodulatory activity in mouse MC38 cells implanted in PD-1/PD-L1 humanized C57/BL6 mouse assessed as increase in CXCR3 mRNA expression level in tumor at 50 mg/kg, IG qd administered on day 5 measured after 2 weeks by RT-PCR analysis; format: functional, organism-based
# [15] = target: Programmed cell death protein 1/Programmed cell death 1 ligand 1 (Homo sapiens) (UniProt Q15116+Q9NZQ7); experiment: Inhibition of PD-1/PD-L1 interaction in human PBMC cells assessed as increase in IFN-gamma secretion at 4 uM incubated for 48 hrs in presence of PD-L1 protein by ELISA assay; format: cell-based
# MC-38 [16] = experiment: Immunomodulatory activity in mouse MC38 cells implanted in PD-1/PD-L1 humanized C57/BL6 mouse assessed as decrease in PD-L1 mRNA expression level in tumor at 50 mg/kg, IG qd administered on day 5 measured after 2 weeks by RT-PCR analysis; format: functional, organism-based
# [17] = Apparent volume of distribution in Sprague-Dawley rat at 8 mg/kg, iv measured upto 48 hrs by LC-MS/MS analysis; format: ADME, organism-based; conditions: Sprague-Dawley, in vivo, read-out: Vz
smiles,measurement,setting,value
N#Cc1cncc(COc2cc(OCc3cccc(-c4ccccc4F)c3Cl)ccc2CNCCO)c1,Cmax,[1],21500 ng/mL
same,Activity,[2],Non-Toxic
same,half-life,[3],59.4 min
same,Vz,[4],1.8 L/kg
same,Activity,[5],Non-Toxic
same,Cmax,[6],6230 ng/mL
same,Activity,MC-38 [7],67.4%
same,AUC(0-t) at 48 h,[8],11500 ng·h/mL
same,Vz,[9],2.94 L/kg
same,Activity,[10],Non-Toxic
same,Activity,MC-38 [11],Active
same,CL/F,[12],10.3 mL/min/kg
same,Cmax,[13],4160 ng/mL
same,Activity,MC-38 [14],Active
same,inhibition,[15],Active
same,Activity,MC-38 [16],Active
same,Vd,[17],1.09 L/kg
